Tested on: Ruminococcus sp.
Assay: Antimicrobial activity against Ruminococcus sp. CCRI-16110 containing vanD-like gene by agar dilution method
Format: functional

| Compound | MIC [µg/mL] |
| --- | --- |
| Cc1ncc([N+](=O)[O-])n1CCO [METRONIDAZOLE] | < 0.125 |
| CN[C@H](CC(C)C)C(=O)N[C@H]1C(=O)N[C@@H](CC(N)=O)C(=O)N[C@H]2C(=O)N[C@H]3C(=O)N[C@H](C(=O)N[C@H](C(=O)O)c4cc(O)cc(O)c4-c4cc3ccc4O)[C@H](O)c3ccc(c(Cl)c3)Oc3cc2cc(c3O[C@@H]2O[C@H](CO)[C@@H](O)[C@H](O)[C@H]2O[C@H]2C[C@](C)(N)[C@H](O)[C@H](C)O2)Oc2ccc(cc2Cl)[C@H]1O [VANCOMYCIN] | > 256 |
